This passage reports IC50 results from US9988420B2, “Cytotoxic peptides and conjugates thereof” (priority 2013, dated 2018).

Common to all, as to assay: In vitro cell killing assay of payloads (cell proliferation, Cell-Titer-Glo)
What all share (assay type): cell-based

One experiment concerns H526 cells. Conditions: Homo sapiens, 120 h; NCI-H526 cells; Cell-Titer-Glo after five days; Table 2b; read-out: In vitro cell killing (IC50 (nM)) NCI-H526.
The test system of a further experiment is A375 cells. Conditions: Homo sapiens, A-375, 120 h, Cell-Titer-Glo after five days. As for the experimental part: (§1) For evaluation of the cell killing potency of the cytotoxic peptides of Formula (I) in vitro, cell proliferation assays were performed in parallel with 8 cell lines: MDA-MB231 clone 16, clone 40, JimT1, HCC1954, H526, KU812, CMK11-5 cells and Jurkat cells. In addition, in vitro, cell proliferation assays were performed using 3 other cell lines: A375, SKBR3 and NCI-N87. All the cell lines are described in more detail in Example 106 and were also used to assess the in vitro potency of immunoconjugates of the invention. The cell proliferation assays were conducted with Cell-Titer-Glo™ (Promega) five days after cells were incubated with various concentrations of ADCs (Riss et al., (2004) Assay Drug Dev Technol. 2:51-62).

Another experiment has as its system NCI-N87 cells. Conditions: Homo sapiens, 120 h, Cell-Titer-Glo after five days. How it is done:
as §1

A further experiment deals with SKBR3 cells. Conditions: Homo sapiens, SK-BR-3, 120 h, Cell-Titer-Glo after five days. How it is done:
as §1

For a further experiment, the system named is JimT1 cells. Conditions: Homo sapiens, JIMT-1, 120 h; JimT1 cells; Cell-Titer-Glo after five days; Table 2b; read-out: In vitro cell killing (IC50 (nM)) JimT1.
A further experiment concerns HCC1954 cells. Conditions: Homo sapiens, 120 h; HCC1954 cells; Cell-Titer-Glo after five days; Table 2b; read-out: In vitro cell killing (IC50 (nM)) HCC1954.

Starred links: 1 amine or outer side, 2 acyl side, 3 side chain; linkers in the order of their positions; H or OH if unused. Non-standard residues stand in square brackets, D forms with d. Residues, ends and D or L forms follow the SMILES beside them. *: point of attachment. Dolaproine = CO[C@@H]([C@@H]1CCCN1)[C@@H](C)C(=O)O; X1 = O=C([C@@H]1[C@H]2CC[C@H](C2)N1[*:1])[*:2]; Dil = CC[C@H](C)[C@H](NC)[C@@H](CC(=O)O)OC; X4 = N#CCN1[C@@H]2CC[C@@H](C2)[C@H]1C(=O)*; X2 = CN1[C@@H]2CC[C@@H](C2)[C@H]1C(=O)*; Phe(ol) = N[C@H](CO)Cc1ccccc1

In general, IC50 refers to the concentration that inhibits the measured activity by half.

Regarding `CC[C@H](C)[C@@H]([C@@H](CC(=O)N1CCC[C@H]1[C@H](OC)[C@@H](C)C(=O)N[C@@H](Cc1ccccc1)c1ncccn1)OC)N(C)C(=O)[C@@H](NC(=O)[C@H]1N[C@@H]2CC[C@H]1C2)C(C)C` [Compound 60, (1R,3S,4S)-N-((S)-1-(((3R,4S,5S)-3-Methoxy-1-((S)-2-((1R,2R)-1-methoxy-2-methyl-3-oxo-3-(((S)-2-phenyl-1-(pyrimidin-2-yl)ethyl)amino)propyl)pyrrolidin-1-yl)-5-methyl-1-oxoheptan-4-yl)(methyl)amino)-3-methyl-1-oxobutan-2-yl)-2-azabicyclo[2.2.1]heptane-3-carboxamide], the half-inhibitory concentration (IC50) stood at 8.35 nM in the experiment on H526 cells; 0.45 nM in the experiment on A375 cells; 0.801 nM with NCI-N87 cells; 0.591 nM in the experiment on SKBR3 cells; 4.82 nM with JimT1 cells.
The like results for `CC[C@H](C)[C@@H]([C@@H](CC(=O)N1CCC[C@H]1[C@H](OC)[C@@H](C)C(=O)N[C@H](COC)Cc1ccccc1)OC)N(C)C(=O)[C@@H](NC(=O)[C@H]1N[C@@H]2CC[C@H]1C2)C(C)C` [Compound 58, (1R,3S,4S)-N-((S)-1-(((3R,4S,5S)-3-Methoxy-1-((S)-2-((1R,2R)-1-methoxy-3-(((S)-1-methoxy-3-phenylpropan-2-yl)amino)-2-methyl-3-oxopropyl)pyrrolidin-1-yl)-5-methyl-1-oxoheptan-4-yl)(methyl)amino)-3-methyl-1-oxobutan-2-yl)-2-azabicyclo[2.2.1]heptane-3-carboxamide] were, in that order, 4.08 nM, 0.304 nM, 0.31 nM, 0.307 nM and 2.15 nM.
In the case of `CC[C@H](C)[C@@H]([C@@H](CC(=O)N1CCC[C@H]1[C@H](OC)[C@@H](C)C(=O)N[C@@H](Cc1ccccc1)C(=O)OC)OC)N(C)C(=O)[C@@H](NC(=O)[C@@H]1[C@H]2CC[C@H](C2)N1C)C(C)C` [Compound 53, (S)-Methyl 2-((2R,3R)-3-((S)-1-((3R,4S,5S)-4-((S)-N,3-dimethyl-2-((1R,3S,4S)-2-methyl-2-azabicyclo[2.2.1]heptane-3-carboxamido)butanamido)-3-methoxy-5-methylheptanoyl)pyrrolidin-2-yl)-3-methoxy-2-methylpropanamido)-3-phenylpropanoate] (X2-V[Dil][Dolaproine]F-OMe), the IC50 was determined as 0.121 nM in the experiment on H526 cells; 0.0121 nM in the experiment with A375 cells; 0.008 nM in the experiment with SKBR3 cells; 0.009 nM in the experiment on HCC1954 cells; 0.011 nM with JimT1 cells.
In the case of `CC[C@H](C)[C@@H]([C@@H](CC(=O)N1CCC[C@H]1[C@H](OC)[C@@H](C)C(=O)N[C@H](Cc1ccccc1)c1ncccn1)OC)N(C)C(=O)[C@@H](NC(=O)[C@H]1N[C@@H]2CC[C@H]1C2)C(C)C` [Compound 61, (1R,3S,4S)-N-((S)-1-(((3R,4S,5S)-3-methoxy-1-((S)-2-((1R,2R)-1-methoxy-2-methyl-3-oxo-3-(((R)-2-phenyl-1-(pyrimidin-2-yl)ethyl)amino)propyl)pyrrolidin-1-yl)-5-methyl-1-oxoheptan-4-yl)(methyl)amino)-3-methyl-1-oxobutan-2-yl)-2-azabicyclo[2.2.1]heptane-3-carboxamide], the IC50 with H526 cells was found to be 60.6 nM; with A375 cells, 5.43 nM; with NCI-N87 cells, 13.5 nM; in the experiment with SKBR3 cells, 6.1 nM; in the experiment with JimT1 cells it was 66 nM.
Taken in the same sequence, the figures for `CC[C@H](C)[C@@H]([C@@H](CC(=O)N1CCC[C@H]1[C@H](OC)[C@@H](C)C(=O)N[C@H](CO)Cc1ccccc1)OC)N(C)C(=O)[C@@H](NC(=O)[C@H]1N[C@@H]2CC[C@H]1C2)C(C)C` [Compound 50, (1R,3S,4S)-N-((S)-1-(((3R,4S,5S)-1-((S)-2-((1R,2R)-3-(((S)-1-Hydroxy-3-phenylpropan-2-yl)amino)-1-methoxy-2-methyl-3-oxopropyl)pyrrolidin-1-yl)-3-methoxy-5-methyl-1-oxoheptan-4-yl)(methyl)amino)-3-methyl-1-oxobutan-2-yl)-2-azabicyclo[2.2.1]heptane-3-carboxamide] (H-[X1]V[Dil][Dolaproine][Phe(ol)]) were 52.4 nM, 5.16 nM, 10.2 nM, 5.66 nM and 57.6 nM.
With `CC[C@H](C)[C@@H]([C@@H](CC(=O)N1CCC[C@H]1[C@H](OC)[C@@H](C)C(=O)N[C@@H](Cc1ccccc1)c1nc(-c2ccccc2)c[nH]1)OC)N(C)C(=O)[C@@H](NC(=O)[C@@H]1[C@H]2CC[C@H](C2)N1C)C(C)C` [Compound 66, (1R,3S,4S)-N-((S)-1-(((3R,4S,5S)-3-Methoxy-1-((S)-2-((1R,2R)-1-methoxy-2-methyl-3-oxo-3-(((S)-2-phenyl-1-(4-phenyl-1H-imidazol-2-yl)ethyl)amino)propyl)pyrrolidin-1-yl)-5-methyl-1-oxoheptan-4-yl)(methyl)amino)-3-methyl-1-oxobutan-2-yl)-2-methyl-2-azabicyclo[2.2.1]heptane-3-carboxamide], the IC50 with H526 cells was determined as 0.126 nM; in the experiment on A375 cells, 0.05 nM; with SKBR3 cells, 0.031 nM; in the experiment on HCC1954 cells, 0.023 nM; in the experiment on JimT1 cells, 0.052 nM.
On to `CC[C@H](C)[C@@H]([C@@H](CC(=O)N1CCC[C@H]1[C@H](OC)[C@@H](C)C(=O)N[C@H](COC)Cc1cccc(N)c1)OC)N(C)C(=O)[C@@H](NC(=O)[C@@H]1[C@H]2CC[C@H](C2)N1C)C(C)C` [Compound 72, (1R,3S,4S)-N-((S)-1-(((3R,4S,5S)-1-((S)-2-((1R,2R)-3-(((S)-1-(3-Aminophenyl)-3-methoxypropan-2-yl)amino)-1-methoxy-2-methyl-3-oxopropyl)pyrrolidin-1-yl)-3-methoxy-5-methyl-1-oxoheptan-4-yl)(methyl)amino)-3-methyl-1-oxobutan-2-yl)-2-methyl-2-azabicyclo[2.2.1]heptane-3-carboxamide], for which the concentration for half-maximal inhibition (IC50) in the experiment with H526 cells is 0.287 nM; in the experiment on A375 cells, 0.189 nM; in the experiment with SKBR3 cells, 0.085 nM; with HCC1954 cells it was 0.079 nM; in the experiment on JimT1 cells, 0.224 nM.
For `CC[C@H](C)[C@@H]([C@@H](CC(=O)N1CCC[C@H]1[C@H](OC)[C@@H](C)C(=O)N[C@@H](Cc1ccccc1)c1cc[nH]n1)OC)N(C)C(=O)[C@@H](NC(=O)[C@H]1N[C@@H]2CC[C@H]1C2)C(C)C` [Compound 59, (1R,3S,4S)-N-((S)-1-(((3R,4S,5S)-3-Methoxy-1-((S)-2-((1R,2R)-1-methoxy-2-methyl-3-oxo-3-(((S)-2-phenyl-1-(1H-pyrazol-3-yl)ethyl)amino)propyl)pyrrolidin-1-yl)-5-methyl-1-oxoheptan-4-yl)(methyl)amino)-3-methyl-1-oxobutan-2-yl)-2-azabicyclo[2.2.1]heptane-3-carboxamide], the IC50 with H526 cells worked out at 19.5 nM; with A375 cells it was 3.55 nM; in the experiment on NCI-N87 cells, 4.78 nM; in the experiment with SKBR3 cells, 3.12 nM; in the experiment with JimT1 cells, 37.5 nM.
On to `CC[C@H](C)[C@@H]([C@@H](CC(=O)N1CCC[C@H]1[C@H](OC)[C@@H](C)C(=O)N[C@H](C)[C@@H](O)c1ccccc1)OC)N(C)C(=O)[C@@H](NC(=O)[C@@H]1[C@H]2CC[C@H](C2)N1C)C(C)C` [Compound 74, (1R,3S,4S)-N-((S)-1-(((3R,4S,5S)-1-((S)-2-((1R,2R)-3-(((1S,2R)-1-Hydroxy-1-phenylpropan-2-yl)amino)-1-methoxy-2-methyl-3-oxopropyl)pyrrolidin-1-yl)-3-methoxy-5-methyl-1-oxoheptan-4-yl)(methyl)amino)-3-methyl-1-oxobutan-2-yl)-2-methyl-2-azabicyclo[2.2.1]heptane-3-carboxamide], for which the concentration for half-maximal inhibition (IC50) in the experiment with H526 cells was 0.962 nM; in the experiment on A375 cells, 0.571 nM; in the experiment with SKBR3 cells, 0.351 nM; in the experiment with HCC1954 cells, 0.27 nM; with JimT1 cells, 0.587 nM.
For `CC[C@H](C)[C@@H]([C@@H](CC(=O)N1CCC[C@H]1[C@H](OC)[C@@H](C)C(=O)N[C@H](CO)Cc1ccccc1)OC)N(C)C(=O)[C@@H](NC(=O)[C@@H]1[C@H]2CC[C@H](C2)N1CC#N)C(C)C` [Compound 63, (1R,3S,4S)-2-(Cyanomethyl)-N-((S)-1-(((3R,4S,5S)-1-((S)-2-((1R,2R)-3-(((S)-1-hydroxy-3-phenylpropan-2-yl)amino)-1-methoxy-2-methyl-3-oxopropyl)pyrrolidin-1-yl)-3-methoxy-5-methyl-1-oxoheptan-4-yl)(methyl)amino)-3-methyl-1-oxobutan-2-yl)-2-azabicyclo[2.2.1]heptane-3-carboxamide] (X4-V[Dil][Dolaproine][Phe(ol)]), the IC50 was 6.49 nM in the experiment on H526 cells; 14.3 nM in the experiment on A375 cells; 2.09 nM in the experiment on NCI-N87 cells; 1.64 nM with HCC1954 cells; 5.08 nM in the experiment with JimT1 cells.
